# Measurements taken from patent US12729194B2, “Compounds for the treatment of human immunodeficiency virus” (priority 2019, dated 2026).
# Legend:
# VLP HIV-1AD8 Env = assay: Antibody recognition of VLP-associated Env
# Experimental: Characterization of VLP-associated Env: To prepare VLPs with HIV-1AD8 Env, 150-mm dishes of 30-40% confluent A549-Gag/Env cells were seeded and, on the following day, treated with 2 μg/ml doxycycline. Approximately 72 hours after induction, cell supernatants were harvested and cleared by low-speed centrifugation (500×g for 15 minutes at 4° C.) and 0.45-μ filtration. VLPs were pelleted by centrifugation at 100,000×g for one hour at 4° C. The resuspended VLP preparation was clarified by low-speed centrifugation. BMS-806 and compounds described herein were added to the clarified VLP-containing suspensions. In some cases, the VLP-compound mixtures were irradiated with a 100-watt, 365-nm ultraviolet (UV) lamp for 10 minutes at room temperature. For all UV studies, exposure of the samples to visible light was minimized.
# For studies of the binding of ligands (antibodies, CD4-Ig and C34-Ig) to detergent-solubilized VLP Env, VLPs prepared as described above were pelleted (20,000×g for 30 minutes at 4° C.). The pellet was incubated with 1.5% Triton X-100 for 30 minutes at 4° C. The VLP lysates were centrifuged (20,000×g for 30 minutes at 4° C.) and the supernatants were incubated with ligands (10 μg/ml) in a 50-μl volume with 25 mg/ml of Protein A-Sepharose beads for one hour at 4° C. The beads were pelleted (1000 rpm for 1 minute at room temperature), washed three times with 1 ml wash buffer with 1% Triton X-100, suspended in LDS Sample Buffer and analyzed by Western blot, as described above.
# In a second assay format, the effect of the compounds was analyzed on the binding of antibodies to Env on intact VLPs, in the absence of detergent. In this case, VLPs in A549-Gag/Env supernatants, clarified as described above, were pelleted at 100,000×g for one hour at 4° C. The pellet was resuspended in PBS and the VLPs pelleted at 20,000×g for 30 minutes at 4° C. The VLPs were resuspended in PBS and incubated with antibodies (10 μg/ml) in a 100-μl volume for one hour at 4° C. The VLPs were then pelleted (20,000×g for 30 minutes at 4° C.) and washed with PBS three times. The VLP pellet was then solubilized in 1.5% Triton X-100 for 30 minutes at 4° C., after which the VLP lysates were clarified by centrifugation at 20,000×g for 30 minutes at 4° C. The supernatants were incubated with 50 μl of Protein A-Sepharose beads for one hour at 4° C. The beads were pelleted (1000 rpm for 1 minute at room temperature), washed three times with 1 ml wash buffer with 1% Triton X-100, suspended in LDS Sample Buffer, and analyzed by Western blot, as described above.
# [1] = tested on: cell-surface HIV-1AD8 Env (A549-Env cells); assay: Immunoprecipitation of cell-surface Env by antibody panel; format: cell-based; conditions: 10 μM
# Experimental: (§1) Immunoprecipitation of cell-surface Env: Doxycycline-induced A549-Env cells were washed twice with washing buffer (1×PBS+5% FBS), with or without 10 μM BMS-806 or compounds described herein. The cells were then incubated with 5 μg/ml antibody for one hour at 4° C. in the continued presence or absence of the compounds described herein. After washing four times in washing buffer, the cells were lysed in NP-40 lysis buffer (0.5% NP-40, 0.5 M NaCl, 10 mM Tris, pH 7.5) for five minutes at 4° C. with gentle agitation. Unless specifically indicated otherwise, compounds described herein were not added to the NP-40 lysis buffer. The lysates were cleared by centrifugation at 13,200×g for 20 minutes at 4° C., and the clarified supernatants were incubated with Protein A-Sepharose beads (50 μl of 25 mg/ml in PBS per sample) for one hour at room temperature. The beads were pelleted (1000 rpm×1 min) and washed three times with final wash buffer (200 mM Tris-HCl, pH 8.0, 100 mM (NH4)2SO4, 1 M NaCl and 0.1% NP-40). The beads were suspended in LDS sample buffer, boiled and analyzed by Western blotting using 1:2000 goat anti-gp120 polyclonal antibody (ThermoFisher) and 1:2000 HRP-conjugated rabbit anti-goat IgG (ThermoFisher). The transmembrane Env was analyzed by Western blot with the 4E10 anti-gp41 antibody and HRP-conjugated goat anti-human IgG (Santa Cruz).
# HIV-1 Env complexes = assay: Association of gp120 with detergent-solubilized His6-tagged Env complexes (Ni-NTA precipitation, Western blot)
# Experimental: Association of gp120 with Env complexes: The non-covalent association of gp120 with HIV-1 Env complexes was studied using carboxy-terminally His6-tagged Envs from three different sources: 1) VLPs produced from A549-Gag/Env cells; 2) A549 cells expressing HIV-1AD8 and HIV-1CH848 Envs; and 3) HOS cells transiently expressing wild-type HIV-1JR-FL Env and wild-type and mutant HIV-1AD8 Envs. VLP and cell lysates from A549 cells were prepared in 1.5% Triton X-100. Cell lysates from HOS cells were prepared in 1.5% Cymal-5 (Anatrace). The VLP and cell lysates were clarified as described above. DMSO, a compound described herein, sCD4 or the CD4-mimetic compound, BNM-III-170 (Melillo, ACS Med Chem Letters 7, 33-334, 2016), was added to the lysate. Aliquots of the lysates were saved for Western blotting to detect the gp160, gp120 and gp41 glycoproteins in the input sample. The bulk of the lysates was incubated with nickel-nitriloacetic acid (Ni-NTA) beads (Qiagen) for 1.5 hours at 4° C. The beads were pelleted (1000 rpm for 1 minute at room temperature), washed 3 times with wash buffer with 1% Triton X-100, boiled in LDS sample buffer, and analyzed by Western blotting as described above.
# [2] = tested on: cell-surface HIV-1AD8 Env; assay: Recognition of cell-surface Env by C34-Ig and CD4-Ig; format: cell-based
# Experimental: as §1
# The effect of BMS-806 on the recognition of the cell-surface HIV-1AD8 Env by CD4-Ig and C34-Ig was evaluated. CD4-Ig is a soluble CD4-immunoglobulin fusion protein, and C34-Ig contains the gp41 HR2 region fused to an immunoglobulin Fc. C34-Ig efficiently recognized the cell-surface Env only after incubation with soluble CD4 (sCD4) (FIG. 1C, left panel). BMS-806 blocked C34-Ig recognition of Env in the presence of sCD4.
# [3] = HIV-1AD8 Env variant in HOS cell lysates
compound,measurement,setting,value
COc1ccc(-c2ccc(CNC(=O)c3c(F)c(F)c(N=[N+]=[N-])c(F)c3F)o2)c2[nH]cc(C(=O)C(=O)N3CCN(C(=O)c4ccccc4)CC3)c12 [AEG-II-168],VLP Env recognition by poorly neutralizing antibodies two weeks after treatment,"VLP HIV-1AD8 Env; compound plus UV irradiation, washed, two weeks without compound",lowered Env recognition by poorly neutralizing antibodies
same,VLP Env recognition by bNAbs two weeks after treatment,"VLP HIV-1AD8 Env; compound plus UV irradiation, PG9, PGT145, PGT151, 35022, 2F5, 4E10, 10E8",increased recognition by several bNAbs
"COc1ccnc2[nH]cc(C(=O)C(=O)N3CCN(C(=O)c4ccccc4)C[C@H]3C)c12 [BMS-806, reference compound]",Recognition of cell-surface Env by poorly neutralizing antibodies,"[1]; 17b, 19b, 902090, F105",decreased the recognition of the uncleaved Env
same,Binding of bNAbs to mature cell-surface gp120,"[1]; PG9, PG16, PGT145, PGT151, 35022",increased the binding of some bNAbs
same,sCD4-induced shedding of gp120 from Env complexes,HIV-1 Env complexes; 10 μM added to cell lysates,could be blocked
same,"BMS-806-induced gp120-Env association, I559F mutant",HIV-1 Env complexes; [3],abrogated responsiveness to BMS-806
same,"BMS-806-induced gp120-Env association, L193A mutant",HIV-1 Env complexes; [3],poor responsiveness
same,CD4-Ig binding to the gp120 and gp160 Envs,[2]; 500 nM,still detected
same,C34-Ig binding to Env,"[2]; 500 nM, with sCD4",inhibited almost completely
same,CD4-Ig recognition of Env,[2]; 10 μM,"inhibited CD4-Ig recognition of the gp120 glycoprotein on the mature Env, but not the uncleaved gp160 Env"
same,Recognition of VLP Env by poorly neutralizing antibodies,VLP HIV-1AD8 Env,reduced recognition of the uncleaved Env
same,Recognition of mature VLP gp120 Env by quaternary-epitope bNAbs,"VLP HIV-1AD8 Env; PG9, PG16, PGT145, PGT151, 35O22",enhanced the recognition of the mature gp120 Env
